# Test results as given in PubChem BioAssay AID2060899 (Molecular Pharmacology Branch, DTP, NCI, 2025).
# Tested on: 565726-208-R1-J5-PDC complex spheroids, growth inhibition
# Assay: Anticancer human tumor 565726-208-R1-J5-PDC patient-derived pancreatic adenocarcinoma cell line growth inhibition [RAS]
# Settings: for IC50: curve of first compound; for viability, T/C: stronger effect = lower value
# Method in brief: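 Multi-cell-type spheroids: tumor cells plus HUVEC endothelial cells and mesenchymal stem cells. RAS-pathway inhibitors were combined with targeted agents, each dosed in half-log steps down from clinical Cmax, or from 10 microM when Cmax was unknown.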
# [1] = second compound 0.000949 µM, first compound 0.0316 µM
# [2] = second compound 0.000949 µM, first compound 0.1 µM
# [3] = second compound 0.000949 µM, first compound 0.316 µM
# [4] = second compound 0.000949 µM, first compound 1 µM
# [5] = second compound 0.003 µM, first compound 0.0316 µM
# [6] = second compound 0.003 µM, first compound 0.1 µM
# [7] = second compound 0.003 µM, first compound 0.316 µM
# [8] = second compound 0.003 µM, first compound 1 µM
# [9] = second compound 0.00949 µM, first compound 0.0316 µM
# [10] = second compound 0.00949 µM, first compound 0.1 µM
# [11] = second compound 0.00949 µM, first compound 0.316 µM
# [12] = second compound 0.00949 µM, first compound 1 µM
# [13] = second compound 0.03 µM, first compound 0.0316 µM
# [14] = second compound 0.03 µM, first compound 0.1 µM
# [15] = second compound 0.03 µM, first compound 0.316 µM
# [16] = second compound 0.03 µM, first compound 1 µM
# [17] = second compound 0.0949 µM, first compound 0.0316 µM
# [18] = second compound 0.0949 µM, first compound 0.1 µM
# [19] = second compound 0.0949 µM, first compound 0.316 µM
# [20] = second compound 0.0949 µM, first compound 1 µM
# [21] = second compound 0.3 µM, first compound 0.0316 µM
# [22] = second compound 0.3 µM, first compound 0.1 µM
# [23] = second compound 0.3 µM, first compound 0.316 µM
# [24] = second compound 0.3 µM, first compound 1 µM
# 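Also: spheroids exposed to compounds for seven days before readout.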
# 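For viability, T/C in this document: 100% = DMSO vehicle control viability.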
compound,measurement,setting,value
NC1c2ccccc2OC12CCN(c1cnc3c(N4CCCc5ncccc54)n[nH]c3n1)CC2 (centres undefined) + CCn1c(-c2cccnc2C(C)OC)c2c3cc(ccc31)N1CCOC(CC(NC(=O)C(C(C)C)N(C)C(=O)C3(F)CCN(C(=O)C#CC(C)(C)N(C)C)CC3)C(=O)N3CCCC(N3)C(=O)OCC(C)(C)C2)C1,IC50,second compound 0.000949 µM,> 10000 nM
same,IC50,second compound 0.003 µM,> 10000 nM
same,IC50,second compound 0.00949 µM,> 10000 nM
same,IC50,second compound 0.03 µM,> 10000 nM
same,IC50,second compound 0.0949 µM,> 10000 nM
same,IC50,second compound 0.3 µM,8090 nM
same,"viability, T/C",[1],82.5%
same,"viability, T/C",[2],77.5%
same,"viability, T/C",[3],72.6%
same,"viability, T/C",[4],60.9%
same,"viability, T/C","second compound 0.000949 µM, first compound 3.16 µM",65.7%
same,"viability, T/C","second compound 0.000949 µM, first compound 10 µM",56.9%
same,"viability, T/C",[5],82.6%
same,"viability, T/C",[6],76.8%
same,"viability, T/C",[7],70%
same,"viability, T/C",[8],65%
same,"viability, T/C","second compound 0.003 µM, first compound 3.16 µM",62.9%
same,"viability, T/C","second compound 0.003 µM, first compound 10 µM",60.5%
same,"viability, T/C",[9],76.3%
same,"viability, T/C",[10],85.5%
same,"viability, T/C",[11],70%
same,"viability, T/C",[12],65%
same,"viability, T/C","second compound 0.00949 µM, first compound 3.16 µM",64.8%
same,"viability, T/C","second compound 0.00949 µM, first compound 10 µM",55.5%
same,"viability, T/C",[13],85.4%
same,"viability, T/C",[14],76.3%
same,"viability, T/C",[15],73.4%
same,"viability, T/C",[16],62.7%
same,"viability, T/C","second compound 0.03 µM, first compound 3.16 µM",58.8%
same,"viability, T/C","second compound 0.03 µM, first compound 10 µM",58.5%
same,"viability, T/C",[17],78.8%
same,"viability, T/C",[18],75.6%
same,"viability, T/C",[19],71.5%
same,"viability, T/C",[20],65%
same,"viability, T/C","second compound 0.0949 µM, first compound 3.16 µM",58.5%
same,"viability, T/C","second compound 0.0949 µM, first compound 10 µM",57%
same,"viability, T/C",[21],72.8%
same,"viability, T/C",[22],68.2%
same,"viability, T/C",[23],68.8%
same,"viability, T/C",[24],59.5%
same,"viability, T/C","second compound 0.3 µM, first compound 3.16 µM",54.2%
same,"viability, T/C","second compound 0.3 µM, first compound 10 µM",49.5%
Nc1ccn(C2OC(CO)C(O)C2(F)F)c(=O)n1 (centres undefined) + CCn1c(-c2cccnc2C(C)OC)c2c3cc(ccc31)N1CCOC(CC(NC(=O)C(C(C)C)N(C)C(=O)C3(F)CCN(C(=O)C#CC(C)(C)N(C)C)CC3)C(=O)N3CCCC(N3)C(=O)OCC(C)(C)C2)C1,IC50,second compound 0.000949 µM,82.4 nM
same,IC50,second compound 0.003 µM,77.2 nM
same,IC50,second compound 0.00949 µM,72.3 nM
same,IC50,second compound 0.03 µM,70.4 nM
same,IC50,second compound 0.0949 µM,77.2 nM
same,IC50,second compound 0.3 µM,44 nM
same,"viability, T/C","second compound 0.000949 µM, first compound 0.00316 µM",107%
same,"viability, T/C","second compound 0.000949 µM, first compound 0.01 µM",91.8%
same,"viability, T/C",[1],68.1%
same,"viability, T/C",[2],47%
same,"viability, T/C",[3],32.3%
same,"viability, T/C",[4],27.9%
same,"viability, T/C","second compound 0.003 µM, first compound 0.00316 µM",110%
same,"viability, T/C","second compound 0.003 µM, first compound 0.01 µM",88.6%
same,"viability, T/C",[5],69.2%
same,"viability, T/C",[6],40.9%
same,"viability, T/C",[7],38.6%
same,"viability, T/C",[8],29.6%
same,"viability, T/C","second compound 0.00949 µM, first compound 0.00316 µM",97.5%
same,"viability, T/C","second compound 0.00949 µM, first compound 0.01 µM",91.2%
same,"viability, T/C",[9],66%
same,"viability, T/C",[10],42.5%
same,"viability, T/C",[11],36.1%
same,"viability, T/C",[12],26.2%
same,"viability, T/C","second compound 0.03 µM, first compound 0.00316 µM",90.1%
same,"viability, T/C","second compound 0.03 µM, first compound 0.01 µM",90.2%
same,"viability, T/C",[13],62.7%
same,"viability, T/C",[14],43.3%
same,"viability, T/C",[15],33.6%
same,"viability, T/C",[16],22.8%
same,"viability, T/C","second compound 0.0949 µM, first compound 0.00316 µM",85.1%
same,"viability, T/C","second compound 0.0949 µM, first compound 0.01 µM",88.4%
same,"viability, T/C",[17],71.9%
same,"viability, T/C",[18],43%
same,"viability, T/C",[19],31.4%
same,"viability, T/C",[20],24.4%
same,"viability, T/C","second compound 0.3 µM, first compound 0.00316 µM",81.8%
same,"viability, T/C","second compound 0.3 µM, first compound 0.01 µM",75.4%
same,"viability, T/C",[21],52.6%
same,"viability, T/C",[22],37.6%
same,"viability, T/C",[23],30.8%
same,"viability, T/C",[24],21.2%
